System: 648629-189-R-J1-PDC spheroids with HUVEC/MSC, viability
Test: Anticancer human tumor 648629-189-R-J1-PDC patient-derived bladder carcinoma cell line growth inhibition [PI3K]
Details: for IC50: curve of first compound; for viability, T/C: stronger effect = lower value
Procedure, shortened: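 Combination activity was assessed by viability in multicellular tumor spheroids carrying HUVEC and MSC components. Agents were tested with PI3K inhibitors from a Cmax-based top dose (or 10 microM) downward in half-log increments.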

[1] = second compound 0.0316 µM, first compound 0.0316 µM
[2] = second compound 0.0316 µM, first compound 0.1 µM
[3] = second compound 0.0316 µM, first compound 0.316 µM
[4] = second compound 0.0316 µM, first compound 1 µM
[5] = second compound 0.0316 µM, first compound 3.16 µM
[6] = second compound 0.0316 µM, first compound 10 µM
[7] = second compound 0.1 µM, first compound 0.0316 µM
[8] = second compound 0.1 µM, first compound 0.1 µM
[9] = second compound 0.1 µM, first compound 0.316 µM
[10] = second compound 0.1 µM, first compound 1 µM
[11] = second compound 0.1 µM, first compound 3.16 µM
[12] = second compound 0.1 µM, first compound 10 µM
[13] = second compound 0.316 µM, first compound 0.0316 µM
[14] = second compound 0.316 µM, first compound 0.1 µM
[15] = second compound 0.316 µM, first compound 0.316 µM
[16] = second compound 0.316 µM, first compound 1 µM
[17] = second compound 0.316 µM, first compound 3.16 µM
[18] = second compound 0.316 µM, first compound 10 µM
[19] = second compound 1 µM, first compound 0.0316 µM
[20] = second compound 1 µM, first compound 0.1 µM
[21] = second compound 1 µM, first compound 0.316 µM
[22] = second compound 1 µM, first compound 1 µM
[23] = second compound 1 µM, first compound 3.16 µM
[24] = second compound 1 µM, first compound 10 µM
[25] = second compound 3.16 µM, first compound 0.0316 µM
[26] = second compound 3.16 µM, first compound 0.1 µM
[27] = second compound 3.16 µM, first compound 0.316 µM
[28] = second compound 3.16 µM, first compound 1 µM
[29] = second compound 3.16 µM, first compound 3.16 µM
[30] = second compound 3.16 µM, first compound 10 µM
[31] = second compound 10 µM, first compound 0.0316 µM
[32] = second compound 10 µM, first compound 0.1 µM
[33] = second compound 10 µM, first compound 0.316 µM
[34] = second compound 10 µM, first compound 1 µM
[35] = second compound 10 µM, first compound 3.16 µM
[36] = second compound 10 µM, first compound 10 µM
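Also: spheroids exposed to agents for seven days before reading.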
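For viability, T/C in this document: percent of vehicle control luminescence where 100% = DMSO treated spheroids.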

Compound `CC1(C)CCC(CN2CCN(c3ccc(C(=O)NS(=O)(=O)c4ccc(NCC5CCOCC5)c([N+](=O)[O-])c4)c(Oc4cnc5[nH]ccc5c4)c3)CC2)=C(c2ccc(Cl)cc2)C1` + CC(Nc1ncnc2nc[nH]c12)c1cc2cccc(Cl)c2c(=O)n1-c1ccccc1 has an IC50 (second compound 0.0316 µM) greater than 10 µM, an IC50 (second compound 0.1 µM) greater than 10 µM and an IC50 (second compound 0.316 µM) greater than 10 µM. For the same compound, the IC50 (second compound 1 µM) was greater than 10 µM, the IC50 (second compound 3.16 µM) was greater than 10 µM and the IC50 (second compound 10 µM) was greater than 10 µM. For the same compound, the viability, T/C [1] was 112%, the viability, T/C [2] was 95.7% and the viability, T/C [3] was 97.3%. It also gave a viability, T/C [4] of 93.1%, a viability, T/C [5] of 83.4% and a viability, T/C [6] of 70.3%. For the same compound, the viability, T/C [7] was 102%, the viability, T/C [8] was 85% and the viability, T/C [9] was 104%. For the same compound, the viability, T/C [10] was 92.3%, the viability, T/C [11] was 89.4% and the viability, T/C [12] was 64%. It also gave a viability, T/C [13] of 92.2%, a viability, T/C [14] of 109% and a viability, T/C [15] of 95.8%. The viability, T/C [16] was 94.5%, the viability, T/C [17] was 97.9% and the viability, T/C [18] was 65.9%. The viability, T/C [19] was 95.6%, the viability, T/C [20] was 108% and the viability, T/C [21] was 102%. The viability, T/C [22] was 85.4%, the viability, T/C [23] was 90.2% and the viability, T/C [24] was 68.4%. The viability, T/C [25] was 103%, the viability, T/C [26] was 101% and the viability, T/C [27] was 91.2%. For the same compound, the viability, T/C [28] was 99.5%, the viability, T/C [29] was 88.6% and the viability, T/C [30] was 60.1%. It also gave a viability, T/C [31] of 83.7%, a viability, T/C [32] of 97% and a viability, T/C [33] of 87.8%. It also gave a viability, T/C [34] of 84.8%, a viability, T/C [35] of 68.9% and a viability, T/C [36] of 59.2%.
Compound `CCCS(=O)(=O)Nc1ccc(F)c(C(=O)c2c[nH]c3ncc(-c4ccc(Cl)cc4)cc23)c1F` + CC(Nc1ncnc2nc[nH]c12)c1cc2cccc(Cl)c2c(=O)n1-c1ccccc1 has an IC50 (second compound 0.0316 µM) of 5.23 µM, an IC50 (second compound 0.1 µM) of 5.59 µM and an IC50 (second compound 0.316 µM) of 5.27 µM. The IC50 (second compound 1 µM) was 5.26 µM, the IC50 (second compound 3.16 µM) was 4.28 µM and the IC50 (second compound 10 µM) was 3.88 µM. For the same compound, the viability, T/C [1] was 99.8%, the viability, T/C [2] was 95.1% and the viability, T/C [3] was 120%. It also gave a viability, T/C [4] of 98.3%, a viability, T/C [5] of 88.2% and a viability, T/C [6] of 0.98%. The viability, T/C [7] was 103%, the viability, T/C [8] was 96.7% and the viability, T/C [9] was 91.8%. For the same compound, the viability, T/C [10] was 98.9%, the viability, T/C [11] was 100% and the viability, T/C [12] was 0.84%. For the same compound, the viability, T/C [13] was 109%, the viability, T/C [14] was 108% and the viability, T/C [15] was 99.2%. It also gave a viability, T/C [16] of 109%, a viability, T/C [17] of 89.4% and a viability, T/C [18] of 0.43%. The viability, T/C [19] was 101%, the viability, T/C [20] was 88.7% and the viability, T/C [21] was 96.2%. The viability, T/C [22] was 99.2%, the viability, T/C [23] was 89.1% and the viability, T/C [24] was 0.46%. The viability, T/C [25] was 91.1%, the viability, T/C [26] was 103% and the viability, T/C [27] was 92.2%. It also gave a viability, T/C [28] of 89.5%, a viability, T/C [29] of 67.6% and a viability, T/C [30] of 0.83%. For the same compound, the viability, T/C [31] was 86.9%, the viability, T/C [32] was 77.6% and the viability, T/C [33] was 81.9%. For the same compound, the viability, T/C [34] was 80.2%, the viability, T/C [35] was 60.6% and the viability, T/C [36] was 1.35%.
`C[C@@H](NC(=O)c1ncnc(N)c1Cl)c1ncc(C(=O)Nc2cc(C(F)(F)F)c(Cl)cn2)s1` + CC(Nc1ncnc2nc[nH]c12)c1cc2cccc(Cl)c2c(=O)n1-c1ccccc1 gave an IC50 (second compound 0.0316 µM) greater than 10 µM, an IC50 (second compound 0.1 µM) greater than 10 µM and an IC50 (second compound 0.316 µM) greater than 10 µM. For the same compound, the IC50 (second compound 1 µM) was greater than 10 µM, the IC50 (second compound 3.16 µM) was greater than 10 µM and the IC50 (second compound 10 µM) was greater than 10 µM. The viability, T/C [1] was 98.8%, the viability, T/C [2] was 104% and the viability, T/C [3] was 111%. For the same compound, the viability, T/C [4] was 108%, the viability, T/C [5] was 118% and the viability, T/C [6] was 130%. The viability, T/C [7] was 113%, the viability, T/C [8] was 97.2% and the viability, T/C [9] was 112%. It also gave a viability, T/C [10] of 109%, a viability, T/C [11] of 112% and a viability, T/C [12] of 113%. For the same compound, the viability, T/C [13] was 105%, the viability, T/C [14] was 110% and the viability, T/C [15] was 102%. For the same compound, the viability, T/C [16] was 118%, the viability, T/C [17] was 112% and the viability, T/C [18] was 115%. The viability, T/C [19] was 115%, the viability, T/C [20] was 89% and the viability, T/C [21] was 113%. It also gave a viability, T/C [22] of 114%, a viability, T/C [23] of 113% and a viability, T/C [24] of 116%. For the same compound, the viability, T/C [25] was 112%, the viability, T/C [26] was 98.5% and the viability, T/C [27] was 98.3%. The viability, T/C [28] was 104%, the viability, T/C [29] was 107% and the viability, T/C [30] was 104%. It also gave a viability, T/C [31] of 103%, a viability, T/C [32] of 81% and a viability, T/C [33] of 78.8%. For the same compound, the viability, T/C [34] was 86.5%, the viability, T/C [35] was 91.8% and the viability, T/C [36] was 85.1%.

From PubChem BioAssay AID1963974 (Molecular Pharmacology Branch, DTP, NCI, 2024)
